The test system of this assay is P388 leukemia ip, CD2F1 mice, survival T/C. The experiment in a line: NCI In Vivo Anticancer Drug Screen. Data for tumor model P388 Leukemia (intraperitoneal) in CD2F1 (CDF1) mice. The note with it: endpoint: median survival time, higher = longer survival. The method in brief: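 Mice carrying the transplanted tumor received test compound or vehicle. Survival was recorded in each group, and the value is the treated-group measurement divided by that of the vehicle-treated control group.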

[1] abbreviates: dose: 50.0 mg/kg/injection, schedule: Q04DX003 (ip), vehicle: saline with Tween-80.
[2] abbreviates: dose: 100.0 mg/kg/injection, schedule: Q04DX003 (ip), vehicle: saline with Tween-80.
[3] abbreviates: dose: 200.0 mg/kg/injection, schedule: Q04DX003 (ip), vehicle: saline with Tween-80.
[4] abbreviates: dose: 50.0 mg/kg/injection, schedule: Q01DX005 (ip), vehicle: Klucel (hydroxypropylcellulose) (HPC).
Where [5] appears, read: dose: 100.0 mg/kg/injection, schedule: Q01DX005 (ip), vehicle: Klucel (hydroxypropylcellulose) (HPC).
The mark [6] stands for this setting: dose: 200.0 mg/kg/injection, schedule: Q01DX005 (ip), vehicle: Klucel (hydroxypropylcellulose) (HPC).
The mark [7] stands for this setting: dose: 100.0 mg/kg/injection, schedule: Q01DX009 (ip), vehicle: saline with Tween-80.
Where [8] appears, read: dose: 200.0 mg/kg/injection, schedule: Q01DX009 (ip), vehicle: saline with Tween-80.
Setting [9] is: dose: 50.0 mg/kg/injection, schedule: Q01DX005 (ip), vehicle: saline with Tween-80.
Where [10] appears, read: dose: 100.0 mg/kg/injection, schedule: Q01DX005 (ip), vehicle: saline with Tween-80.
Setting [11] is: dose: 25.0 mg/kg/injection, schedule: Q01DX005 (ip), vehicle: Klucel (hydroxypropylcellulose) (HPC).
[12] abbreviates: dose: 50.0 mg/kg/injection, schedule: Q01DX009 (ip), vehicle: saline with Tween-80.
The mark [13] stands for this setting: dose: 50.0 mg/kg/injection, schedule: Q01DX009 (ip), vehicle: saline.
Setting [14] is: dose: 200.0 mg/kg/injection, schedule: Q01DX005 (ip), vehicle: saline with Tween-80.
Setting [15] is: dose: 60.0 mg/kg/injection, schedule: Q01DX005 (ip), vehicle: saline.
[16] abbreviates: dose: 120.0 mg/kg/injection, schedule: Q01DX005 (ip), vehicle: saline.
The mark [17] stands for this setting: dose: 240.0 mg/kg/injection, schedule: Q01DX005 (ip), vehicle: saline.
[18] abbreviates: dose: 12.5 mg/kg/injection, schedule: Q01DX005 (ip), vehicle: Klucel (hydroxypropylcellulose) (HPC).
The mark [19] stands for this setting: dose: 100.0 mg/kg/injection, schedule: Q01DX001 (ip), vehicle: saline with Tween-80.
Setting [20] is: dose: 200.0 mg/kg/injection, schedule: Q01DX001 (ip), vehicle: saline with Tween-80.
Where [21] appears, read: dose: 400.0 mg/kg/injection, schedule: Q01DX001 (ip), vehicle: saline with Tween-80.

SMILES strings stand for the structures. Several values for one entry are separate records, joined by “and”; a condition that tells them apart may be missing. Equal entries are not always repeated. Inconclusive results and toxic doses are left out.

Turning to `COC(=O)[C@H]1O[C@H]1c1cccc[n+]1[O-]`, the T/C is, setting by setting: (dose: 25.0 mg/kg/injection, schedule: Q01DX005 (ip), vehicle: water) 100 % of control; (dose: 50.0 mg/kg/injection, schedule: Q01DX005 (ip), vehicle: water) 97 % of control; (dose: 100.0 mg/kg/injection, schedule: Q01DX005 (ip), vehicle: water) 100 % of control; (dose: 200.0 mg/kg/injection, schedule: Q01DX005 (ip), vehicle: water) 102 % of control.
Take `Nc1[nH]nc2nc(-c3ccc(Cl)cc3)cnc12`: the T/C by setting is: under setting [1], 100 % of control; under setting [2], 100 % of control; under setting [3], 100 % of control.
For the molecule `Cc1cnc(Sc2ncccn2)c(C(=O)O)c1[N+](=O)[O-]`, the T/C runs as follows: under setting [4], 101 % of control; under setting [5], 99 % of control; under setting [6], 100 % of control.
As for `Cc1ccc(C(=O)C2CC(Br)C(Br)CC2C(=O)c2ccc(C)cc2)cc1` (configuration not stated), the T/C reads like this: under setting [7], 91 % of control; under setting [8], 91 % of control; (dose: 400.0 mg/kg/injection, schedule: Q01DX009 (ip), vehicle: saline with Tween-80) 87 % of control.
For `O=c1oc(-c2ccccc2O)ns1`, the T/C (dose: 100.0 mg/kg/injection, schedule: Q01DX009 (ip), vehicle: Klucel (hydroxypropylcellulose) (HPC)) was 98 % of control; the T/C (dose: 200.0 mg/kg/injection, schedule: Q01DX009 (ip), vehicle: Klucel (hydroxypropylcellulose) (HPC)) is 102 % of control; the T/C (dose: 400.0 mg/kg/injection, schedule: Q01DX009 (ip), vehicle: Klucel (hydroxypropylcellulose) (HPC)) is 97 % of control.
Regarding `O=C1C2CC3CC1CC(Cl)(C3)C2`, the T/C by setting is: under setting [9], 112 % of control; under setting [10], 98 % of control.
With `COC(=O)c1nnn(-c2ccccc2)n1`, the T/C under setting [11] is 99 % of control, the T/C under setting [4] was 101 % of control and the T/C under setting [5] was 101 % of control.
On to `[N-]=[N+]=CC(=O)Oc1ccc([N+](=O)[O-])cc1`, for which the T/C is 100 % of control (dose: 3.13 mg/kg/injection, schedule: Q01DX009 (ip), vehicle: other); 98 % of control (dose: 6.25 mg/kg/injection, schedule: Q01DX009 (ip), vehicle: other); 104 % of control (dose: 12.5 mg/kg/injection, schedule: Q01DX009 (ip), vehicle: other); 98 % of control and 97 % of control (dose: 25.0 mg/kg/injection, schedule: Q01DX009 (ip), vehicle: other); 89 % of control (dose: 50.0 mg/kg/injection, schedule: Q01DX009 (ip), vehicle: other).
As for `CN1CCC(=C2c3ccccc3Oc3ncccc32)CC1`, the T/C is, setting by setting: (dose: 12.5 mg/kg/injection, schedule: Q01DX009 (ip), vehicle: saline) 102 % of control; (dose: 25.0 mg/kg/injection, schedule: Q01DX009 (ip), vehicle: saline) 111 % of control; under setting [12], 102 % of control; under setting [13], 99 % of control.
For the molecule `CCN(CC)CCSC1CC2CC(C1C)C2(C)C` (configuration not stated), the T/C by setting is: under setting [4], 99 % of control; under setting [5], 109 % of control; under setting [6], 104 % of control.
As for `CC(NC(=O)C(Cc1c[nH]c2ccccc12)NC(=O)OCc1ccccc1)C(=O)O` (configuration not stated), the T/C runs as follows: under setting [9], 119 % of control; under setting [10], 103 % of control; under setting [14], 97 % of control.
With `CC1=C(C)C[C@](C)(S(=O)(=O)N2CCOCC2)S(=O)C1` (some centres not stated), the T/C is 105 % of control under setting [15], 98 % of control under setting [16] and 111 % of control under setting [17].
With `CN(C)c1ccc2c(SCC(=O)OCC(=O)C3(O)CCC4C5CCC6=CC(=O)C=CC6(C)C5C(O)CC43C)c3ccc(N(C)C)cc3nc2c1` (configuration not stated), the T/C is 98 % of control and 97 % of control under setting [18]; 111 % of control and 93 % of control under setting [11]; 123 % of control and 96 % of control under setting [4]; 118 % of control and 122 % of control under setting [5].
Consider `NNC(=O)c1ccc(Cl)cc1`, for which the T/C by setting is: (dose: 25.0 mg/kg/injection, schedule: Q01DX009 (ip), vehicle: saline with Tween-80) 91 % of control; under setting [12], 96 % of control; under setting [7], 96 % of control; under setting [8], 86 % of control.
As to `CCOc1ccc(CC)cc1Cc1ccc(OC)cc1`, the T/C was 108 % of control under setting [9], 117 % of control under setting [10] and 113 % of control under setting [14].
With `COc1cc2c(/C=N/NC(N)=S)c(Cl)[nH]c2cc1C`, the T/C is 105 % of control (dose: 25.0 mg/kg/injection, schedule: Q04DX003 (ip), vehicle: saline with Tween-80); 107 % of control under setting [1]; 102 % of control under setting [19]; 90 % of control under setting [2]; 100 % of control under setting [20]; 98 % of control under setting [3]. In addition, under setting [21], the T/C is 90 % of control.
Regarding `CC(C)CC(CO)Cc1nc2ccccc2[nH]1` (configuration not stated), the T/C (dose: 60.0 mg/kg/injection, schedule: Q01DX005 (ip), vehicle: saline with Tween-80) is 114 % of control and the T/C (dose: 120.0 mg/kg/injection, schedule: Q01DX005 (ip), vehicle: saline with Tween-80) was 105 % of control.
For the molecule `CC(C)C1=CCC2C(=C1)CCC1C(C)(C(N)=O)CCCC21C` (configuration not stated), the T/C under setting [19] is 100 % of control, the T/C under setting [20] was 100 % of control and the T/C under setting [21] was 100 % of control.
For `CN(C)CCN(Cc1ccco1)c1ccccn1`, the T/C reads like this: (dose: 12.5 mg/kg/injection, schedule: Q01DX005 (ip), vehicle: saline with Tween-80) 92 % of control; (dose: 12.5 mg/kg/injection, schedule: Q01DX005 (ip), vehicle: saline) 96 % of control and 98 % of control; (dose: 25.0 mg/kg/injection, schedule: Q01DX005 (ip), vehicle: saline with Tween-80) 100 % of control; (dose: 25.0 mg/kg/injection, schedule: Q01DX005 (ip), vehicle: saline) 96 % of control and 99 % of control; (dose: 50.0 mg/kg/injection, schedule: Q01DX005 (ip), vehicle: saline) 102 % of control [middle of 4 runs].
As to `CCCN1CCc2cccc3c2C1Cc1ccc(O)c(O)c1-3` (configuration not stated), the T/C is 121 % of control under setting [12], 113 % of control under setting [13] and 109 % of control under setting [8].
For `CCCCCCCCCc1cccc(N2C(N)=NC(N)=NC2(C)C)c1`, where the note is “dose: 7.5 mg/kg/injection, schedule: Q01DX005 (ip), vehicle: saline with Tween-80”, the T/C is 106 % of control.
`O=C1c2ccccc2C(=O)C1C(=Nc1ccccc1Cl)c1ccccc1`: the T/C is, setting by setting: under setting [18], 90 % of control; under setting [11], 88 % of control; under setting [4], 86 % of control; under setting [5], 94 % of control.
Turning to `CC(=O)OC1CC23COC(=O)C4OC45CCO/C(=C/C/C=C\C(=O)OC4C[C@@H](OC2C=C1C)[C@@]1(CO1)[C@]43C)C5O` (some centres not stated), the T/C was 100 % of control (dose: 0.32 mg/kg/injection, schedule: Q01DX009 (ip), vehicle: Klucel (hydroxypropylcellulose) (HPC)); 110 % of control (dose: 125.0 micrograms/kg/injection, schedule: Q01DX009 (ip), vehicle: Klucel (hydroxypropylcellulose) (HPC)); 118 % of control (dose: 250.0 micrograms/kg/injection, schedule: Q01DX009 (ip), vehicle: Klucel (hydroxypropylcellulose) (HPC)); 152 % of control (dose: 1000.0 micrograms/kg/injection, schedule: Q01DX009 (ip), vehicle: Klucel (hydroxypropylcellulose) (HPC)).
Consider `CCOP(=O)(OCC)C(=O)c1ccccc1`, for which the T/C under setting [15] was 100 % of control, the T/C under setting [16] was 103 % of control and the T/C under setting [17] was 105 % of control.

The values are drawn from PubChem BioAssay AID330 (DTP/NCI, 2004).
